Numbers after ± are expanded uncertainties.
Conditions: 101.33 kPa, Liquid; for viscosity: Concentric cylinders viscometry; for mass density: Vibrating tube method

For `CCn1cc[n+](C)c1.O=S(=O)([O-])O` [1-ethyl-3-methylimidazolium hydrogen sulfate], the viscosity (283.15 K) was 5756.7 ± 410 mPa·s, the viscosity (288.15 K) was 3635 ± 240 mPa·s and the viscosity (293.15 K) was 2389.9 ± 150 mPa·s. For the same compound, the mass density (293.15 K) was 1368.86 ± 0.58 kg/m3, the mass density (294.15 K) was 1368.25 ± 0.58 kg/m3 and the mass density (295.15 K) was 1367.63 ± 0.58 kg/m3. The mass density (296.15 K) was 1367 ± 0.58 kg/m3, the mass density (297.15 K) was 1366.38 ± 0.58 kg/m3 and the viscosity (298.15 K) was 1628.4 ± 96 mPa·s. For the same compound, the mass density (298.15 K) was 1365.77 ± 0.58 kg/m3, the mass density (299.15 K) was 1365.14 ± 0.58 kg/m3 and the mass density (300.15 K) was 1364.53 ± 0.58 kg/m3. The mass density (301.15 K) was 1363.91 ± 0.58 kg/m3, the mass density (302.15 K) was 1363.29 ± 0.58 kg/m3 and the viscosity (303.15 K) was 1144.8 ± 64 mPa·s. It also gave a mass density (303.15 K) of 1362.67 ± 0.58 kg/m3, a mass density (304.15 K) of 1362.05 ± 0.58 kg/m3 and a mass density (305.15 K) of 1361.44 ± 0.58 kg/m3. For the same compound, the mass density (306.15 K) was 1360.82 ± 0.58 kg/m3, the mass density (307.15 K) was 1360.21 ± 0.58 kg/m3 and the viscosity (308.15 K) was 827.1 ± 44 mPa·s. It also gave a mass density (308.15 K) of 1359.59 ± 0.58 kg/m3, a mass density (309.15 K) of 1358.98 ± 0.58 kg/m3 and a mass density (310.15 K) of 1358.76 ± 0.58 kg/m3. For the same compound, the mass density (311.15 K) was 1358.14 ± 0.58 kg/m3, the mass density (312.15 K) was 1357.52 ± 0.58 kg/m3 and the viscosity (313.15 K) was 612.2 ± 31 mPa·s. The mass density (313.15 K) was 1356.9 ± 0.58 kg/m3, the mass density (314.15 K) was 1356.28 ± 0.58 kg/m3 and the mass density (315.15 K) was 1355.67 ± 0.57 kg/m3. For the same compound, the mass density (316.15 K) was 1355.05 ± 0.57 kg/m3, the mass density (317.15 K) was 1354.43 ± 0.57 kg/m3 and the viscosity (318.15 K) was 463 ± 23 mPa·s. For the same compound, the mass density (318.15 K) was 1353.81 ± 0.57 kg/m3, the mass density (319.15 K) was 1353.19 ± 0.57 kg/m3 and the mass density (320.15 K) was 1352.57 ± 0.57 kg/m3. The mass density (321.15 K) was 1351.96 ± 0.57 kg/m3, the mass density (322.15 K) was 1351.34 ± 0.57 kg/m3 and the viscosity (323.15 K) was 356.8 ± 17 mPa·s. For the same compound, the mass density (323.15 K) was 1350.72 ± 0.57 kg/m3, the mass density (324.15 K) was 1350.11 ± 0.57 kg/m3 and the mass density (325.15 K) was 1349.49 ± 0.57 kg/m3. The mass density (326.15 K) was 1348.88 ± 0.57 kg/m3, the mass density (327.15 K) was 1348.27 ± 0.57 kg/m3 and the viscosity (328.15 K) was 279.7 ± 13 mPa·s. For the same compound, the mass density (328.15 K) was 1347.65 ± 0.57 kg/m3, the mass density (329.15 K) was 1347.04 ± 0.57 kg/m3 and the mass density (330.15 K) was 1346.43 ± 0.57 kg/m3. For the same compound, the mass density (331.15 K) was 1345.82 ± 0.57 kg/m3, the mass density (332.15 K) was 1345.2 ± 0.57 kg/m3 and the viscosity (333.15 K) was 222.6 ± 9.9 mPa·s. The mass density (333.15 K) was 1344.6 ± 0.57 kg/m3, the mass density (334.15 K) was 1343.99 ± 0.57 kg/m3 and the mass density (335.15 K) was 1343.38 ± 0.57 kg/m3. For the same compound, the mass density (336.15 K) was 1342.77 ± 0.57 kg/m3, the mass density (337.15 K) was 1342.16 ± 0.57 kg/m3 and the viscosity (338.15 K) was 179.6 ± 7.8 mPa·s. It also gave a mass density (338.15 K) of 1341.56 ± 0.56 kg/m3, a mass density (339.15 K) of 1340.95 ± 0.56 kg/m3 and a mass density (340.15 K) of 1340.35 ± 0.56 kg/m3. It also gave a mass density (341.15 K) of 1339.75 ± 0.56 kg/m3, a mass density (342.15 K) of 1339.14 ± 0.56 kg/m3 and a viscosity (343.15 K) of 146.7 ± 6.2 mPa·s. The mass density (343.15 K) was 1338.54 ± 0.56 kg/m3, the mass density (344.15 K) was 1337.94 ± 0.56 kg/m3 and the mass density (345.15 K) was 1337.34 ± 0.56 kg/m3. The mass density (346.15 K) was 1336.74 ± 0.56 kg/m3, the mass density (347.15 K) was 1336.14 ± 0.56 kg/m3 and the viscosity (348.15 K) was 121.2 ± 5.1 mPa·s. For the same compound, the mass density (348.15 K) was 1335.54 ± 0.56 kg/m3, the mass density (349.15 K) was 1334.94 ± 0.56 kg/m3 and the mass density (350.15 K) was 1334.35 ± 0.56 kg/m3. The mass density (351.15 K) was 1333.75 ± 0.56 kg/m3, the mass density (352.15 K) was 1333.16 ± 0.56 kg/m3 and the viscosity (353.15 K) was 101.2 ± 4.2 mPa·s. The mass density (353.15 K) was 1332.57 ± 0.56 kg/m3, the mass density (354.15 K) was 1331.97 ± 0.56 kg/m3 and the mass density (355.15 K) was 1331.38 ± 0.56 kg/m3. For the same compound, the mass density (356.15 K) was 1330.79 ± 0.56 kg/m3, the mass density (357.15 K) was 1330.2 ± 0.56 kg/m3 and the viscosity (358.15 K) was 85.2 ± 3.5 mPa·s. For the same compound, the mass density (358.15 K) was 1329.61 ± 0.56 kg/m3, the mass density (359.15 K) was 1329.02 ± 0.56 kg/m3 and the mass density (360.15 K) was 1328.44 ± 0.56 kg/m3. For the same compound, the mass density (361.15 K) was 1327.85 ± 0.56 kg/m3, the mass density (362.15 K) was 1327.26 ± 0.56 kg/m3 and the viscosity (363.15 K) was 72.4 ± 2.9 mPa·s. It also gave a mass density (363.15 K) of 1326.68 ± 0.55 kg/m3, a viscosity (368.15 K) of 61.9 ± 2.5 mPa·s and a viscosity (373.15 K) of 53.4 ± 2.2 mPa·s.
